{"source": "patent US6380168B1", "about": "“Method for promoting hair growth” (Nomura Co., Ltd., priority 1992, dated 2002)", "key": {"tyrosinase": {"test_system": "tyrosinase", "assay": "Tyrosinase inhibition (L-Dopa, dopachrome absorbance at 475 nm, procedure of Manson and Peterson)", "format": "biochemical, mushroom", "description": "This experiment was conducted according to the procedure of Manson and Peterson. A 0.5 ml L-Dopa solution (0.03% in pH6.8 PBS) was added to 0.5 ml of a test liquid, and incubated for 5 minutes at 25° C. After which, a 0.5 ml of tyrosinase solution (obtained from a mushroom) was added and the mixture was further incubated for 5 minutes at 25° C. […] Kojic acid was used for a positive control test."}, "[1]": {"assay": "Skin blood flow in rats after topical application, measured with a Laser Doppler Flowmeter", "format": "in vivo, Wistar male rats", "conditions": "rat, measured after 20 minutes", "description": "Wistar male rats (180 to 200 g weights) were employed as experimental animals. The quantity of the skin blood in this experiment was measured with a Laser Doppler Flowmeter (PF2B, Perimed). The backs of rats were sheared. A day later, the rats were anesthetisized with urethane (1 g/Kg) and a quantity of blood flow was measured. This quantity was defined as a normal flow.\nImmediately after the measurement of the normal flow, a group of rats were treated with topical application of 25 μl of test liquid in 50% ethanol solution and a group of rats were treated with topical application of 50% ethanol solution as a control. The skin blood flow was measured at 20 minute, 40 minute and 60 minute intervals. MeOH extract from Calanthe discolor Lindl. (CDM-ext: 0.5% and 2.0%), Calanthoside A (0-20%), and indilbin (0.2%) were tested, and the results for the extract are shown in Table 1.\nThe ability of Calanthoside B to increase skin blood flow can be used to promote hair growth."}}, "note": "Values joined by “and” are separate entries in the source; they are usually repeats but may differ in a detail not shown here. Identical values can stand only once."}
{"compound": "O=c1cc(CO)occ1O", "note": "[Kojic Acid, Kojic acid]", "values": [{"measurement": "% Inhibition", "setting": "tyrosinase; concentration 5 (μM)", "result": "32.5% and 28.2% and 23.9%"}, {"measurement": "% Inhibition", "setting": "tyrosinase; concentration 20 (μM)", "result": "66.0% and 62.2% and 59.3%"}, {"measurement": "% Inhibition", "setting": "tyrosinase; concentration 50 (μM)", "result": "82.7% and 80.3% and 78.6%"}, {"measurement": "anti-tyrosinase activity (result in words)", "setting": "tyrosinase; summary of Table 2", "result": "strong anti-tyrosinase activity"}]}
{"compound": "OCC1O[C@@H](Oc2c(S[C@@H]3OC(CO)[C@@H](O)C(O)C3O)[nH]c3ccccc23)C(O)C(O)[C@@H]1O", "note": "(stereo partly drawn) [Calanthoside B, 2-S-β-D-glucopyranosyl-3-O-β-D-glucopyrannosyl-2-mercaptoindole]", "values": [{"measurement": "skin blood flow (result in words)", "setting": "[1]; 0.2%", "result": "increases skin blood flow"}]}
{"compound": "OCC1O[C@@H](OCC2O[C@@H](Oc3c[nH]c4ccccc34)C(O)C(O)[C@@H]2O)C(O)C(O)[C@@H]1O", "note": "(stereo partly drawn) [Calanthoside A, 3-O-β-D-glucopyranosyl (1-6)-β-D-glucopyranosylindole]", "values": [{"measurement": "% Inhibition", "setting": "tyrosinase; concentration 50 μg/ml", "result": 38.6, "unit": "%"}, {"measurement": "% Inhibition", "setting": "tyrosinase; concentration 200 μg/ml", "result": 65.9, "unit": "%"}, {"measurement": "skin blood flow (result in words)", "setting": "[1]; Calanthoside A (0-20%)", "result": "increases skin blood flow"}]}
